Measurements taken from patent publication US20260256925A1, “INDAZOLE DERIVATIVES AS ESTROGEN RECEPTOR DEGRADERS” (REGENTS OF THE UNIVERSITY OF MICHIGAN, priority 2022, published 2026).

Experiments:
ER = molecular target: T1, ER (Homo sapiens, UniProt P03372); test: In-cell western blot analysis, relative ER percentage (compounds B1-B126); type: cell-based; conditions: ER degradation, 16 hours, read-out: ICW DC50
T1 construct: endogenous in cells; probably T47D or MCF-7
T1 sequence (P03372 1-595): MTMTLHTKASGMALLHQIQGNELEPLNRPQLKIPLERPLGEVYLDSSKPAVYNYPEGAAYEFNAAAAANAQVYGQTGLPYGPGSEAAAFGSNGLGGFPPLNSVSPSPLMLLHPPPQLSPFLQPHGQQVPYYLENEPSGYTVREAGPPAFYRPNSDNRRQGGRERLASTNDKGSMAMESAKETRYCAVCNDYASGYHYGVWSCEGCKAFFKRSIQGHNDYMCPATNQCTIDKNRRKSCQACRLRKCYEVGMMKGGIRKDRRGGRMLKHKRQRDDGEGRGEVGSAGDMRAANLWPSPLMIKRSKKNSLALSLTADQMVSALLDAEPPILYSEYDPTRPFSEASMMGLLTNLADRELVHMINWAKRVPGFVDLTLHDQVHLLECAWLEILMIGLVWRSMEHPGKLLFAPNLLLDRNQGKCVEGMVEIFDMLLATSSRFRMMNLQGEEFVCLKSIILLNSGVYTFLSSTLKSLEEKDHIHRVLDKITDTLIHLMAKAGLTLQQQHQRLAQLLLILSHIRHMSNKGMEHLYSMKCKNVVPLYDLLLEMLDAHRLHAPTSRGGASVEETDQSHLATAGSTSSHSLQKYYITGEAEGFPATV
Procedure, shortened: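 Readout was a two-colour infrared in-cell western of formaldehyde-fixed cells after 16 h compound exposure at 0.5% DMSO, with 40,000 or 10,000 cells/well plated the previous night. Relative ER percentage compares treated wells against untreated/DMSO-treated wells taken as 100%.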

[1] = Cell growth assay, WST-8 (compounds B1-B126); type: cell-based; conditions: 96 h; T47D cell line, WST-8, 4 days; read-out: Cell growth inhibition in T47D cell line IC50
Procedure, shortened: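 Read-out is WST-8 absorbance at 450 nm (2.5 h, 37° C) as a fraction of vehicle control, from three separate repeats. Compound exposure lasted 4 days, starting one day after plating 1500 cells/well.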

Row | Compound | DC50 (ER) [nM] | IC50 [1] [nM]
1 | C[C@@H]1Cc2c(ccc3[nH]ncc23)[C@@H](c2c(F)cc(N3CCC4(CN(C(=O)CN5CCN6c7cc8c(cc7OC[C@@H]6C5)C(=O)N(C5CCC(=O)NC5=O)C8)C4)C3)cc2F)N1CC(F)F (stereo partly drawn) [Compound B37, 3-((S)-3-(2-(6-(4-((6S,8R)-7-(2,2-difluoroethyl)-8-methyl-6,7,8,9-tetrahydro-3H-pyrazolo[4,3-f]isoquinolin-6-yl)-3,5-difluorophenyl)-2,6-diazaspiro[3.4]octan-2-yl)-2-oxoethyl)-8-oxo-1,2,3,4,4a,5,8,10-octahydro-9H-pyrazino[1′,2′:4,5][1,4]oxazino[2,3-f]isoindol-9-yl)piperidine-2,6-dione] | < 10 | < 1
2 | C[C@@H]1Cc2c(ccc3[nH]ncc23)[C@@H](c2c(F)cc(NC3CN(CC(=O)N4CCN5c6cc7c(cc6OC[C@@H]5C4)C(=O)N(C4CCC(=O)NC4=O)C7)C3)cc2F)N1CC(F)F (some centres unmarked) [Compound B27] | 10 to 100 | < 1
3 | C[C@@H]1Cc2c(ccc3[nH]ncc23)[C@@H](c2ccc(N3CCC4(CCN(CC(=O)N5Cc6cc7c(cc6C5)C(=O)N(C5CCC(=O)NC5=O)C7=O)CC4)CC3)cn2)N1CC(F)(F)F (stereo partly drawn) [Compound B48, 2-(2,6-dioxopiperidin-3-yl)-6-(2-(9-(6-((6S,8R)-8-methyl-7-(2,2,2-trifluoroethyl)-6,7,8,9-tetrahydro-3H-pyrazolo[4,3-f]isoquinolin-6-yl)pyridin-3-yl)-3,9-diazaspiro[5.5]undecan-3-yl)acetyl)-6,7-dihydropyrrolo[3,4-f]isoindole-1,3(2H,5H)-dione] | > 100 | > 10
4 | C[C@@H]1Cc2c(ccc3[nH]ncc23)[C@@H](c2ccc(N3CCC4(CC3)CC(CN3CCN5c6ccc(C(=O)N[C@H]7CCC(=O)NC7=O)nc6OC[C@H]5C3)CO4)cn2)N1CC(F)(F)F (stereo partly drawn) [Compound B93, (4aR)-N-((S)-2,6-dioxopiperidin-3-yl)-3-((8-(6-((6S,8R)-8-methyl-7-(2,2,2-trifluoroethyl)-6,7,8,9-tetrahydro-3H-pyrazolo[4,3-f]isoquinolin-6-yl)pyridin-3-yl)-1-oxa-8-azaspiro[4.5]decan-3-yl)methyl)-1,2,3,4,4a,5-hexahydropyrazino[1,2-d]pyrido[2,3-b][1,4]oxazine-8-carboxamide] | 10 to 100 | 1 to 10
5 | C[C@@H]1Cc2c(ccc3[nH]ncc23)[C@@H](c2ccc(N3CCC4(CC3)CC(CN3CCN5c6ccc(C(=O)N[C@H]7CCC(=O)NC7=O)nc6OC[C@H]5C3)C4)cn2)N1CC(F)(F)F [Compound B89, (R)-N-((S)-2,6-dioxopiperidin-3-yl)-3-((7-(6-((6S,8R)-8-methyl-7-(2,2,2-trifluoroethyl)-6,7,8,9-tetrahydro-3H-pyrazolo[4,3-f]isoquinolin-6-yl)pyridin-3-yl)-7-azaspiro[3.5]nonan-2-yl)methyl)-1,2,3,4,4a,5-hexahydropyrazino[1,2-d]pyrido[2,3-b][1,4]oxazine-8-carboxamide] | > 100 | > 10
6 | C[C@@H]1Cc2c(ccc3[nH]ncc23)[C@@H](c2ccc(N3CC4(CCC(CN5CCN6c7cc8c(cc7N(C)C[C@@H]6C5)C(=O)N(C5CCC(=O)NC5=O)C8)CC4)C3)cn2)N1CC(F)(F)F (stereo partly drawn) [Compound B59, 3-((S)-6-methyl-3-((2-(6-((6S,8R)-8-methyl-7-(2,2,2-trifluoroethyl)-6,7,8,9-tetrahydro-3H-pyrazolo[4,3-f]isoquinolin-6-yl)pyridin-3-yl)-2-azaspiro[3.5]nonan-7-yl)methyl)-8-oxo-2,3,4,4a,5,6,8,10-octahydropyrazino[1,2-a]pyrrolo[3,4-g]quinoxalin-9(1H)-yl)piperidine-2,6-dione] | < 10 | 1 to 10
7 | C[C@H]1Cc2c(ccc3[nH]ncc23)[C@H](c2ccc(NC3CN(CC(=O)N4CCN5c6cc7c(cc6OC[C@@H]5C4)C(=O)N(C4CCC(=O)NC4=O)C7)C3)cn2)N1CC(F)(F)F (stereo partly drawn) [Compound B43, 3-((S)-3-(2-(3-((6-((6R,8S)-8-methyl-7-(2,2,2-trifluoroethyl)-6,7,8,9-tetrahydro-3H-pyrazolo[4,3-f]isoquinolin-6-yl)pyridin-3-yl)amino)azetidin-1-yl)acetyl)-8-oxo-1,2,3,4,4a,5,8,10-octahydro-9H-pyrazino[1′,2′:4,5][1,4]oxazino[2,3-f]isoindol-9-yl)piperidine-2,6-dione] | 10 to 100 | 1 to 10
8 | C[C@@H]1Cc2c(ccc3[nH]ncc23)[C@@H](c2c(F)cc(NC3CC4(C3)CN(CC(=O)N3Cc5cc6c(cc5C3)C(=O)N(C3CCC(=O)NC3=O)C6=O)C4)cc2F)N1CC(F)F (stereo partly drawn) [Compound B45, 6-(2-(6-((4-((6S,8R)-7-(2,2-difluoroethyl)-8-methyl-6,7,8,9-tetrahydro-3H-pyrazolo[4,3-f]isoquinolin-6-yl)-3,5-difluorophenyl)amino)-2-azaspiro[3.3]heptan-2-yl)acetyl)-2-(2,6-dioxopiperidin-3-yl)-6,7-dihydropyrrolo[3,4-f]isoindole-1,3(2H,5H)-dione] | 10 to 100 | 1 to 10
9 | C[C@@H]1Cc2c(ccc3[nH]ncc23)[C@@H](c2c(F)cc(NC3CN(CC(=O)N4CCN5c6ccc7c(c6OC[C@H]5C4)CN(C4CCC(=O)NC4=O)C7=O)C3)cc2F)N1CC(F)F (stereo partly drawn) [Compound B101, 3-((R)-7-(2-(3-((4-((6S,8R)-7-(2,2-difluoroethyl)-8-methyl-6,7,8,9-tetrahydro-3H-pyrazolo[4,3-f]isoquinolin-6-yl)-3,5-difluorophenyl)amino)azctidin-1-yl)acetyl)-1-oxo-1,3,5,5a,6,7,8,9-octahydro-2H-pyrazino[1′,2′:4,5][1,4]oxazino[2,3-e]isoindol-2-yl)piperidine-2,6-dione] | < 10 | 1 to 10

More lines, main results first:

Row | DC50 (ER) [nM] | Compound | IC50 [1] [nM]
10 | 10 to 100 | COc1cc(N2CCC3(CC2)CC(CN2CCN4c5ccc6c(c5OC[C@H]4C2)CN(C2CCC(=O)NC2=O)C6=O)C3)ccc1[C@@H]1c2ccc3[nH]ncc3c2C[C@@H](C)N1CC(F)F (stereo partly drawn) [Compound B82, 3-((R)-7-((7-(4-((6S,8R)-7-(2,2-difluoroethyl)-8-methyl-6,7,8,9-tetrahydro-3H-pyrazolo[4,3-f]isoquinolin-6-yl)-3-methoxyphenyl)-7-azaspiro[3.5]nonan-2-yl)methyl)-1-oxo-1,3,5,5a,6,7,8,9-octahydro-2H-pyrazino[1′,2′:4,5][1,4]oxazino[2,3-e]isoindol-2-yl)piperidine-2,6-dione] | < 1
11 | < 10 | C[C@H]1Cc2c(ccc3[nH]ncc23)[C@H](c2ccc(N3CC4(CCC(CN5CCN6c7ccc8c(c7OC[C@@H]6C5)CN([C@@H]5CCC(=O)NC5=O)C8=O)CC4)C3)cn2)N1CC(F)(F)F [Compound B124, (R)-3-((S)-7-((2-(6-((6R,8S)-8-methyl-7-(2,2,2-trifluoroethyl)-6,7,8,9-tetrahydro-3H-pyrazolo[4,3-f]isoquinolin-6-yl)pyridin-3-yl)-2-azaspiro[3.5]nonan-7-yl)methyl)-1-oxo-1,3,5,5a,6,7,8,9-octahydro-2H-pyrazino[1′,2′:4,5][1,4]oxazino[2,3-e]isoindol-2-yl)piperidine-2,6-dione] | < 1
12 | < 10 | COc1cc(N2CCC3(CC2)CC(CN2CCN4c5ccc6c(c5OC[C@H]4C2)CN([C@H]2CCC(=O)NC2=O)C6=O)CO3)ccc1[C@@H]1c2ccc3[nH]ncc3c2C[C@@H](C)N1CC(F)F (stereo partly drawn) [Compound B81, (3S)-3-((5aR)-7-((8-(4-((6S,8R)-7-(2,2-difluoroethyl)-8-methyl-6,7,8,9-tetrahydro-3H-pyrazolo[4,3-f]isoquinolin-6-yl)-3-methoxyphenyl)-1-oxa-8-azaspiro[4.5]decan-3-yl)methyl)-1-oxo-1,3,5,5a,6,7,8,9-octahydro-2H-pyrazino[1′,2′:4,5][1,4]oxazino[2,3-e]isoindol-2-yl)piperidine-2,6-dione] | < 1
13 | 10 to 100 | C[C@@H]1Cc2c(ccc3[nH]ncc23)[C@@H](c2c(F)cc(NC3CN(C(=O)CN4CCN5c6ccc7c(c6OC[C@H]5C4)CN(C4CCC(=O)NC4=O)C7=O)C3)cc2F)N1CC(F)F (stereo partly drawn) [Compound B100, 3-((R)-7-(2-(3-((4-((6S,8R)-7-(2,2-difluoroethyl)-8-methyl-6,7,8,9-tetrahydro-3H-pyrazolo[4,3-f]isoquinolin-6-yl)-3,5-difluorophenyl)amino)azetidin-1-yl)-2-oxoethyl)-1-oxo-1,3,5,5a,6,7,8,9-octahydro-2H-pyrazino[1′,2′:4,5][1,4]oxazino[2,3-e]isoindol-2-yl)piperidine-2,6-dione] | 1 to 10
